For orientation: IC50 means the point on the concentration scale where inhibition reaches its midpoint. Lower therefore signals higher potency. The EC50 is the midpoint of the concentration-response curve.

Some results are limits rather than exact numbers.

Test [1] addresses Dual specificity mitogen-activated protein kinase kinase 2 (Homo sapiens) (UniProt P36507). The experiment in a line: Inhibition of MKK2 at 1 uM; values are per cent of control.
Test [2] has as its target T1, TGF-beta receptor type-1 (Homo sapiens, UniProt P36897).
T1 sequence (P36897 whole entry): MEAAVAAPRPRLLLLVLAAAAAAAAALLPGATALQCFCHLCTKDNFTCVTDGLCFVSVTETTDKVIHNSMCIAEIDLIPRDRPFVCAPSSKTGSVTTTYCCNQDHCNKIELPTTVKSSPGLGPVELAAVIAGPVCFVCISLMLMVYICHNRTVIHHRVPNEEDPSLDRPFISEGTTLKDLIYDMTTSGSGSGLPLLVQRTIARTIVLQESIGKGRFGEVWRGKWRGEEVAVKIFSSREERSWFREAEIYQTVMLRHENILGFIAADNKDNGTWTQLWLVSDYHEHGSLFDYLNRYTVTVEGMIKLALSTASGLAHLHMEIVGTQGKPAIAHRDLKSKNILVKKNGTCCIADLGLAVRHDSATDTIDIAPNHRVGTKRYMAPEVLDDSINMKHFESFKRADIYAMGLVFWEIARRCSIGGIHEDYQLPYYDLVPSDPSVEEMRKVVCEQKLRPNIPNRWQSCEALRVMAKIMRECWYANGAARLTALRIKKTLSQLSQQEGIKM
Nature of the test: Inhibition of TGFbeta receptor.

Test [3] deals with HaCaT. The experiment in a line: Cytotoxicity against human HaCaT cells.
Test [4] deals with Glycogen synthase kinase-3 beta (Homo sapiens) (UniProt P49841). Nature of the test: Inhibition of GSK3-beta at 1 uM; values are per cent of control.
Test [5] has as its target T2, Mitogen-activated protein kinase 13 (Homo sapiens) (UniProt O15264).
T2 sequence (whole entry): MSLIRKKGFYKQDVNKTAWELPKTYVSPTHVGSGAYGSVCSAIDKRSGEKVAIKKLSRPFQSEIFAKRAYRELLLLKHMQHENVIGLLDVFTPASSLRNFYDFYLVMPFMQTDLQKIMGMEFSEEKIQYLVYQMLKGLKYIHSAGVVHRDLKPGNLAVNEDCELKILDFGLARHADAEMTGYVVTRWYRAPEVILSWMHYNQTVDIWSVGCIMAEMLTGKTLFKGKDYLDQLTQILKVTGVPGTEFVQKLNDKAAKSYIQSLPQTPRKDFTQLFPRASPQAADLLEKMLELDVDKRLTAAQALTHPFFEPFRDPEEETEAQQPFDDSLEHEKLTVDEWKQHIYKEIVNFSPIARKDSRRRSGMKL
Nature of the test: Inhibition of p38delta at 1 uM; values are per cent of control.

In test [6] the target is Cyclin-dependent kinase 2/cyclin A (Homo sapiens) (UniProt P24941+P20248+P78396). Nature of the test: Inhibition of CDK2/cyclin A at 1 uM; values are per cent of control.
Test [7] deals with T1, TGF-beta receptor type-1. Nature of the test: Inhibition of TGFbeta receptor in human HaCaT cells assessed as Smad phosphorylation by ELISA. The class given is cell-based. (In an ELISA, binding on a coated surface is turned into a signal by an enzyme label.)
For test [8], the target named is Mitogen-activated protein kinase 11 (Homo sapiens) (UniProt Q15759). The experiment in a line: Inhibition of p38beta2 at 1 uM; values are per cent of control.
The target in test [9] is T3, MAP kinase-activated protein kinase 5 (Homo sapiens) (UniProt Q8IW41).
T3 sequence (whole entry): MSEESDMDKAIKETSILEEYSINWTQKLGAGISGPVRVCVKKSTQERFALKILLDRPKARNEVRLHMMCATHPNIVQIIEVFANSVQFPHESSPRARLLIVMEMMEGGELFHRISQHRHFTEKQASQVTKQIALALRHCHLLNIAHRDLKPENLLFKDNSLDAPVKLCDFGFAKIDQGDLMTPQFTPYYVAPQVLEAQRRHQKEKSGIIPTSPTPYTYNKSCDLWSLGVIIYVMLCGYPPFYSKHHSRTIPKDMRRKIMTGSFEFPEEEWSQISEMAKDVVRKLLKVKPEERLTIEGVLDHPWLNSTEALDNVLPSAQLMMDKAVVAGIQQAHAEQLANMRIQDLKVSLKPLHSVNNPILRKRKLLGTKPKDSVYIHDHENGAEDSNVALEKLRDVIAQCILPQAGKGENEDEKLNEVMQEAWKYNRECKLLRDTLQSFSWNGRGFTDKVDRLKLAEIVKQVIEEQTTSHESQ
The experiment in a line: Inhibition of PRAK at 1 uM; values are per cent of control.

Test [10] deals with Mitogen-activated protein kinase 12 (Homo sapiens) (UniProt P53778). Nature of the test: Inhibition of p38-gamma at 1 uM; values are per cent of control.
Test [11] has as its target T4, Lymphokine-activated killer T-cell-originated protein kinase (Homo sapiens) (UniProt Q96KB5).
T4 sequence (whole entry): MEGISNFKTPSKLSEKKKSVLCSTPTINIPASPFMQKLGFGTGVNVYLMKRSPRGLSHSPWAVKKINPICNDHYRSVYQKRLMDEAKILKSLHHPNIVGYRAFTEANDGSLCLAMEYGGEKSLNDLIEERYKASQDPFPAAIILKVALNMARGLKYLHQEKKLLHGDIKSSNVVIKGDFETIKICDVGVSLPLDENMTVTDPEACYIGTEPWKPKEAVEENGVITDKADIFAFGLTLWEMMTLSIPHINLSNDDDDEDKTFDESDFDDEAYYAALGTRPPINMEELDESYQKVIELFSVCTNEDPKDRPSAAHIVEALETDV
Nature of the test: Inhibition of PBK at 1 uM; values are per cent of control.

For test [12], the target named is Proto-oncogene tyrosine-protein kinase Src (Homo sapiens) (UniProt P12931). The experiment in a line: Inhibition of Src at 2 uM.
For test [13], the target named is Bone morphogenetic protein receptor type-2 (Homo sapiens, UniProt Q13873). Nature of the test: Inhibition of BMPR2.
Test [14] concerns the target Platelet-derived growth factor receptor alpha (Homo sapiens, UniProt P16234). The experiment in a line: Inhibition of PDGFRalpha.
Test [15] deals with TGF-beta receptor type-2 (Homo sapiens, UniProt P37173). The experiment in a line: Inhibition of TGFbeta2 receptor.
Sequence of TGF-beta receptor type-2 (P37173 whole entry): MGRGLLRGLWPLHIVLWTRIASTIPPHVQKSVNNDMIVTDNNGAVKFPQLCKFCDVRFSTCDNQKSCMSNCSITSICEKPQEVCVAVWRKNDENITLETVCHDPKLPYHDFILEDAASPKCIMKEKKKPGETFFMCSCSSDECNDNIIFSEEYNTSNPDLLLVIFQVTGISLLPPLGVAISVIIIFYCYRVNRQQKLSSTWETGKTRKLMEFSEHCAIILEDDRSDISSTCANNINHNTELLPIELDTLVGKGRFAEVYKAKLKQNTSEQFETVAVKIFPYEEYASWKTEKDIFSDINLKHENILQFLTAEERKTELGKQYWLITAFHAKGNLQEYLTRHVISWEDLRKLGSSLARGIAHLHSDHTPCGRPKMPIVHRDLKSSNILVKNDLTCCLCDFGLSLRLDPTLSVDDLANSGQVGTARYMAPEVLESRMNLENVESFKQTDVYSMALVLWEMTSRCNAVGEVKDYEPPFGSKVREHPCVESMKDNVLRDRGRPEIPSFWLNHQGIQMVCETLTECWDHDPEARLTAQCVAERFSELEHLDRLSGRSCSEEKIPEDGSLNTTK

Sequence of Proto-oncogene tyrosine-protein kinase Src (Homo sapiens) (P12931 2-536 limits assumed): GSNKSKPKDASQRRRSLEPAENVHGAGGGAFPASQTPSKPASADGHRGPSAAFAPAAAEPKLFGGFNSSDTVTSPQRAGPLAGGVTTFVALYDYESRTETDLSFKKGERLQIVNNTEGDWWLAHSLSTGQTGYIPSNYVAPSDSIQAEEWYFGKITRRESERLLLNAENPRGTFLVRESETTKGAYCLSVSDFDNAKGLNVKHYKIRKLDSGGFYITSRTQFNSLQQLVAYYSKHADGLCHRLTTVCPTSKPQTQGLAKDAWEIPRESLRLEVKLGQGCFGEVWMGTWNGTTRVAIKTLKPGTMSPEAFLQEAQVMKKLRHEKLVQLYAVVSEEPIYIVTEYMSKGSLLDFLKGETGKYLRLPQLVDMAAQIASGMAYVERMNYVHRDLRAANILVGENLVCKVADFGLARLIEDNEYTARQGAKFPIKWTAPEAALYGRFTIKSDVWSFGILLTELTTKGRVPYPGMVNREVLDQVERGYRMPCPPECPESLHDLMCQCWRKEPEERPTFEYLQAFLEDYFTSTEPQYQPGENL
Sequence of Dual specificity mitogen-activated protein kinase kinase 2 (Homo sapiens) (P36507 whole entry): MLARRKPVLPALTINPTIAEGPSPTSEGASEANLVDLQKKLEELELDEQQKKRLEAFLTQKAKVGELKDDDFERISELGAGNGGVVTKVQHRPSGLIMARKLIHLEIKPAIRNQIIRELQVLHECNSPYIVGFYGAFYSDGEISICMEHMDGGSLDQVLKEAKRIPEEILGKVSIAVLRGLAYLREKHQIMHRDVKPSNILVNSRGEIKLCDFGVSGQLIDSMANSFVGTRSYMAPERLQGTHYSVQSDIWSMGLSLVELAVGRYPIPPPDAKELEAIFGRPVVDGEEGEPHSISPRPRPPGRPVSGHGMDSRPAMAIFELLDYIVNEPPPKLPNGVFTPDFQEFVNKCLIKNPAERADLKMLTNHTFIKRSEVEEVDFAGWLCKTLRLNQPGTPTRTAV
Sequence of Platelet-derived growth factor receptor alpha (P16234 whole entry): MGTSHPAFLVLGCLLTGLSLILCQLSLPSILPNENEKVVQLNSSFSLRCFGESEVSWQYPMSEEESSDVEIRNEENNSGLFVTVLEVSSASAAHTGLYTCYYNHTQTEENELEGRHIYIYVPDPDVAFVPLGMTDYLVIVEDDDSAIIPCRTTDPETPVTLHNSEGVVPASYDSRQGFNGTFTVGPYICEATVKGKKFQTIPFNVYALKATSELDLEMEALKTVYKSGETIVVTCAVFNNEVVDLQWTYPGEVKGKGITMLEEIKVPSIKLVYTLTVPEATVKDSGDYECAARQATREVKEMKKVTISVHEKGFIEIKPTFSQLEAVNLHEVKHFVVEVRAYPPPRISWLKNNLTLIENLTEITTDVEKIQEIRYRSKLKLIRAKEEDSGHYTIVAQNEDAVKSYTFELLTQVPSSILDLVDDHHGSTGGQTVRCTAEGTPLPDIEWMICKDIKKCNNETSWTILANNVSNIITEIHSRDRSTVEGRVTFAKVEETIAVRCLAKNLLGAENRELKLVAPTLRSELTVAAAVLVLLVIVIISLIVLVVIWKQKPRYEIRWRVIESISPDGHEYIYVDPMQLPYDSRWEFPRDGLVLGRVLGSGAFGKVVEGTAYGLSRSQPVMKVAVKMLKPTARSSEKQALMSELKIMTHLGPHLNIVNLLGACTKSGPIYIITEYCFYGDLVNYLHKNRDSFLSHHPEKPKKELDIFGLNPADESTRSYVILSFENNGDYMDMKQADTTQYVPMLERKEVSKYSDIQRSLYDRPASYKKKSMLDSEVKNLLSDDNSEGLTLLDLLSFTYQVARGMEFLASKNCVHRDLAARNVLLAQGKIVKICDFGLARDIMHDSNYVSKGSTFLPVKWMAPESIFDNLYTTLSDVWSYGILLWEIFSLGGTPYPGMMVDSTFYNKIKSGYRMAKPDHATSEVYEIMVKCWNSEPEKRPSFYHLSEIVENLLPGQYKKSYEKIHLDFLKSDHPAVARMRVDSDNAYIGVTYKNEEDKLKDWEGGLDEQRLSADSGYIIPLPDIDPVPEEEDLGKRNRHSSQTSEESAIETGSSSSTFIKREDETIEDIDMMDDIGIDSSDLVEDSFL
Sequence of Glycogen synthase kinase-3 beta (Homo sapiens) (P49841 whole entry, looked up): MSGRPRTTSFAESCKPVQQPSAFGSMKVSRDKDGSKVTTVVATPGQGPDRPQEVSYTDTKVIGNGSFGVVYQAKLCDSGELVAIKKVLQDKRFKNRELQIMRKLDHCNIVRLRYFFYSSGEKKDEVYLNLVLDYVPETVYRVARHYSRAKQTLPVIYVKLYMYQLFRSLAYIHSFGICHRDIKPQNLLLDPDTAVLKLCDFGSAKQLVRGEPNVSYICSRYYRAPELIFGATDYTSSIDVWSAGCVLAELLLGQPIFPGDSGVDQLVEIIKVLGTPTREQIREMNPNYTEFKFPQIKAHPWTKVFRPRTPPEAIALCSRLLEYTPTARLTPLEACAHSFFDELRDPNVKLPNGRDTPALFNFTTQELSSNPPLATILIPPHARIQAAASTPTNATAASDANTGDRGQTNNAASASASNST
Sequence of Mitogen-activated protein kinase 11 (Homo sapiens) (Q15759 whole entry): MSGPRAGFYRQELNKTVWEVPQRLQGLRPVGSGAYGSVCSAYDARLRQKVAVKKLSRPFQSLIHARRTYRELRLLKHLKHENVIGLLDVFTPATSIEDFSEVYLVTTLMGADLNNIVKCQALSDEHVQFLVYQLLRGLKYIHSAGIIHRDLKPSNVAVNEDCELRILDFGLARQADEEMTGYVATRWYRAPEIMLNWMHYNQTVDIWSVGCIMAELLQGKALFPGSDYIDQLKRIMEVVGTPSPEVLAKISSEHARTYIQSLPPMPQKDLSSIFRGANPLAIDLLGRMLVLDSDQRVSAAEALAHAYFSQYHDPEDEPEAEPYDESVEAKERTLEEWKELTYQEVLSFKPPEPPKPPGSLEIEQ
Sequence of Mitogen-activated protein kinase 12 (Homo sapiens) (P53778 whole entry): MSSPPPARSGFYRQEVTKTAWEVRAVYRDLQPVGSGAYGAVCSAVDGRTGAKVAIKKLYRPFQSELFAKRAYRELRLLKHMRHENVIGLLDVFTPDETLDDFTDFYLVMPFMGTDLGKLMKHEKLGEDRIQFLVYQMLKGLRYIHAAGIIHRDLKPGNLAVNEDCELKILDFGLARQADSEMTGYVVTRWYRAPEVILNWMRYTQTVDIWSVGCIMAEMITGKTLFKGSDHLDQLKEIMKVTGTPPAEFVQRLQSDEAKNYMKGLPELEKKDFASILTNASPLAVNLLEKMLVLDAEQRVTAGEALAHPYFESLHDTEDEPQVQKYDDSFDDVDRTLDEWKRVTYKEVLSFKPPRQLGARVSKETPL
Sequence of Bone morphogenetic protein receptor type-2 (Q13873 whole entry): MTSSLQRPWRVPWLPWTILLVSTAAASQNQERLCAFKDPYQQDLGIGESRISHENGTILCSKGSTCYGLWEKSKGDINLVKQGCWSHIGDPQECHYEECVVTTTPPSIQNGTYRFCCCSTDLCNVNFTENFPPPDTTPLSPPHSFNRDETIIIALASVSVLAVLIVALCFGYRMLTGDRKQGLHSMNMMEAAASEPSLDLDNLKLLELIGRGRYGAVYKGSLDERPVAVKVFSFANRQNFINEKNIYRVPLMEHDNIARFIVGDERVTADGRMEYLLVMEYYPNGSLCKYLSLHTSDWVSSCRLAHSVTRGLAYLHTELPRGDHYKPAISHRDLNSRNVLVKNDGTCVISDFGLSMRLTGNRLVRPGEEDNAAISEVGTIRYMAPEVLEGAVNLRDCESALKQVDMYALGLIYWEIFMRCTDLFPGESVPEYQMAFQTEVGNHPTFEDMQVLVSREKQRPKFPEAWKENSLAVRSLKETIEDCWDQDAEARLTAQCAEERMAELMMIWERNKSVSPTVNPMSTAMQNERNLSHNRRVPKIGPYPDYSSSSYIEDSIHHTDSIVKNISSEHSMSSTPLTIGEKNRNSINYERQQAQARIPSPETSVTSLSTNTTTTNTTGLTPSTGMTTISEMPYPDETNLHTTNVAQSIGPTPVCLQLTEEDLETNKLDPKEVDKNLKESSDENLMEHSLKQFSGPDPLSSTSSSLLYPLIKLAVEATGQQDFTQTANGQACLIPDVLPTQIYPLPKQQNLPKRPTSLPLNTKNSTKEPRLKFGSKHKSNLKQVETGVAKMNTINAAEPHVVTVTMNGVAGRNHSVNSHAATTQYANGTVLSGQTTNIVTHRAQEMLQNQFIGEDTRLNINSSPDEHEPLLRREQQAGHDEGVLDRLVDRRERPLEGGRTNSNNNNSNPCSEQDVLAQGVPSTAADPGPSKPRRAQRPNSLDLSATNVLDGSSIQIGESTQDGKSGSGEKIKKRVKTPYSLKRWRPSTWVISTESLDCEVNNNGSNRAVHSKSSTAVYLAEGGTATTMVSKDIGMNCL

Regarding `CN(C)C(=O)c1ccc2c(c1)/C(=C(/Nc1ccc(CN3CCCCC3)cc1)c1ccccc1)C(=O)N2`, the residual activity is 94% in [1]; 5% in test [4]; 99% in test [5]; 39% in test [6]; 100% in [8]; 59% in test [9]. Besides, the figures for the residual activity in [10] and in test [11] were 91% and 19%, respectively. The IC50 in test [2] is 186 nM; in test [3] it was greater than 1000 nM. Further, the EC50 in [7] was determined as 198 nM.

Regarding `CCN(C)C(=O)c1ccc2c(c1)NC(=O)/C2=C(\Nc1ccc(CN2CCCCC2)cc1)c1ccccc1`, the residual activity is 102% in [1]; 82% in test [4]; 86% in [12]; 108% in [5]; 110% in test [6]; 98% in test [8]. Also, the values for the residual activity in [9], in test [10] and in test [11] were 87%, 93% and 150%, respectively. Moreover, the IC50 is greater than 1000 nM in test [3], greater than 50000 nM in test [13], 890 nM in test [14] and 19000 nM in test [15]. Moreover, the concentration giving a half-maximal response (EC50) in [7] worked out at 105 nM.

For the compound `O=C1Nc2ccccc2/C1=C(/Nc1ccc(CN2CCCCC2)cc1)c1ccccc1`, the residual activity in test [1] amounted to 75%; in test [4] it was 1%; in [6] it was 38%; in [9] it was 38%; in [11], 5%. Moreover, the IC50 in test [2] worked out at 3460 nM.

Consider `CCNCc1ccc(N/C(=C2\C(=O)Nc3cc(C(=O)N(C)CC)ccc32)c2ccccc2)cc1`, for which the residual activity worked out at 97% in test [1]; 56% in test [4]; 61% in [12]; 86% in [5]; 87% in test [6]; 70% in [9]. In addition, the residual activity in test [11] came to 88%. Moreover, the IC50 was 32 nM in test [2], greater than 1000 nM in test [3] and 1100 nM in test [14]. Moreover, the concentration giving a half-maximal response (EC50) in test [7] was 160 nM.

Consider `CCNC(=O)c1ccc2c(c1)NC(=O)/C2=C(\Nc1ccc(CN(C)C)cc1)c1ccccc1`, for which the values for the half-maximal inhibitory concentration (IC50) in test [2], in test [3] and in test [14] were 19 nM, greater than 1000 nM and 99 nM, respectively. The residual activity in [4] came out at 114%; in test [12] it was 86%; in test [6], 103%; in test [9], 96%; in [11] it was 102%. Moreover, the half-maximal effective concentration (EC50) in test [7] is 185 nM.

Regarding `CCNC(=O)c1ccc2c(c1)NC(=O)/C2=C(\Nc1ccc(N(CCN(C)C)S(C)(=O)=O)cc1)c1ccccc1`, the figures for the IC50 in test [2] and in [14] were 1 nM and 74 nM, respectively. The residual activity in test [4] stood at 124%; in [6], 100%; in [9] it was 67%; in test [11], 101%. In addition, in test [7], the EC50 is 108 nM.

These data come from ChEMBL document CHEMBL1268952, “Design, synthesis, and evaluation of indolinones as inhibitors of the transforming growth factor β receptor I (TGFβRI)” (J Med Chem, 2010).
